{"source": "patent US5013850A", "about": "“4-ethyl and 4-ethenyl-5-hydroxy-2(5H)-furanones substituted on alpha carbon of the ethyl or ethenyl side chain with a long chain alkyl group and on the beta carbon with a polar group, as anti-inflammatory agents” (Allergan, Inc., priority 1990, dated 1991)", "note": "pIC50: −log10 of the molar value."}
{"test_system": "phosphoinositide-specific phospholipase C", "experiment": "not given", "settings": "Bennett et al, Molecular Pharmacology 32:587-593 (1987); cited from earlier work"}
{"smiles": "CC(=CCCC1=CCC(C2=CC(=O)OC2O)OC1O)CCC1=C(C)CCCC1(C)C", "note": "(centres unmarked) [Compound 1]", "inhibition of phosphoinositide-specific phospholipase C": "This activity has been reported for manoalide"}
{"biological_target": "bee venom phospholipase A2 (Apis mellifera, UniProt P00630)", "sequence (P00630 34-167 limits assumed)": "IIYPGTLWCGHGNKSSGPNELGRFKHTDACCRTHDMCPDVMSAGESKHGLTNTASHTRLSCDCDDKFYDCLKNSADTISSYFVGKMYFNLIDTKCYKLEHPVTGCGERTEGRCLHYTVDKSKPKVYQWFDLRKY", "experiment": "biochemical", "settings": "read-out: IC50, Phospholipase A2 Assay (50% inhibition of bee venom phospholipase A2)"}
{"smiles": "CC(=CCCC1=CCC(C2=CC(=O)OC2O)OC1O)CCC1=C(C)CCCC1(C)C", "note": "(centres unmarked) [Compound 1]", "pIC50": 7.52}
{"smiles": "CCCCCCCCCCCCC(CC(=O)OCC)C1=CC(=O)OC1O", "note": "(centres unmarked) [Compound 7, 4-[1-(Ethoxycarbonylmethyl)tridecyl]-5-hydroxy-2(5H)-furanone]", "pIC50": 6.59}
{"smiles": "CCCCCCCCCCCCC(CC(C)=O)C1=CC(=O)OC1O", "note": "(centres unmarked) [Compound 8, 4-[1-(2-oxopropyl)tridecyl]-5-hydroxy-2(5H)-furanone]", "pIC50": 7.05}
{"smiles": "CCCCCCCCCCCCC(CC(=O)C(F)(F)F)C1=CC(=O)OC1O", "note": "(centres unmarked) [Compound 9, 4-[1-(3,3,3-Trifluoro-2-oxo)propyl]tridecyl-5-hydroxy-2(5H)-furanone]", "pIC50": 6.38}
{"smiles": "CCCCCCCCCCCCC(CC(C)(C)O)C1=CC(=O)OC1O", "note": "(centres unmarked) [Compound 10, 4-[1-(2-Hydroxy-2-methylpropyl)tridecyl]-5-hydroxy-2(5H)-furanone]", "pIC50": "< 6.00"}
{"smiles": "CCCCCCCCCCCCC(C1=CC(=O)OC1O)C(C(=O)OC)C(=O)OC", "note": "(centres unmarked) [Compound 11, 4-[-(1,1-Bis(carbomethoxy)methyl)tridecyl]-5-hydroxy-2(5H)-furanone]", "pIC50": 7.10}
{"smiles": "CCCCCCCCCCCCC(CC(=O)O)C1=CC(=O)OC1O", "note": "(centres unmarked) [Compound 12, 4-[1-(Carboxymethyl)tridecyl]-5-hydroxy-2(5H)-furanone]", "pIC50": 6.89}
{"smiles": "CCCCCCCCCCCCC(CP(=O)(OCC)OCC)C1=CC(=O)OC1O", "note": "(centres unmarked) [Compound 13, 4-[1-(diethylphosphonyl)methyl]tridecyl-5-hydroxy-2(5H)-furanone]", "pIC50": 7.00}
{"smiles": "CCCCCCCCCCCCC(=CC(=O)C(F)(F)F)C1=CC(=O)OC1O", "note": "(centres unmarked) [Compound 23, (E),(Z)-4-[(1-Dodecyl-3-oxo-4,4,4-trifluoro)-1-butenyl]-5-hydroxy-2(5H)-furanone]", "pIC50": 7.40}
{"smiles": "CCCCCCCCCCCCC(=CP(=O)(OCC)OCC)C1=CC(=O)OC1O", "note": "(centres unmarked) [Compound 24, 4-[(1-Dodecyl-2-diethylphosphonyl)-1-ethenyl]-5-hydroxy-2(5H)-furanone]", "pIC50": 7.10}
{"test_system": "not given", "experiment": "not given", "settings": "U.S. Pat. No. 4,447,445; European Patent Application No. 0133376; cited from earlier work"}
{"smiles": "CC(=CCCC1=CCC(C2=CC(=O)OC2O)OC1O)CCC1=C(C)CCCC1(C)C", "note": "(centres unmarked) [Compound 1]", "biological activity": "anti-inflammatory, immunosuppressive and analgesic properties"}
{"smiles": "CC(=CCCC(C=O)=CCC(O)C1=CC(=O)OC1O)CCC1=C(C)CCCC1(C)C", "note": "(centres unmarked) [Compound 2]", "biological activity": "anti-inflammatory inflammatory activity"}
{"smiles": "CC(=CCCC(C=O)=CC=CC1=CC(=O)OC1O)CCC1=C(C)CCCC1(C)C", "note": "(centres unmarked) [Compound 3]", "biological activity": "anti-inflammatory inflammatory activity"}
